Values quoted from earlier work, collected in patent EP2706070A1, “Combination treatments involving antibodies to human PCSK9” (SANOFI, priority 2012, dated 2014).

Assays:
[1] = elimination (ezetimibe and its glucuronide: from plasma, after oral administration); cited from earlier work
LDL-C = settings: ezetimibe 10 mg/day added to maximal dose of statins, genotype-confirmed hoFH; cited from earlier work

| Structure (SMILES) | half-life [1] | total reduction of LDL-C levels (LDL-C) |
| --- | --- | --- |
| O=C(O)[C@H]1O[C@@H](Oc2ccc([C@@H]3[C@@H](CC[C@H](O)c4ccc(F)cc4)C(=O)N3c3ccc(F)cc3)cc2)[C@H](O)[C@@H](O)[C@@H]1O [ezetimibe-glucuronide] | approximately 22 hours | – |
| O=C1[C@H](CC[C@H](O)c2ccc(F)cc2)[C@@H](c2ccc(O)cc2)N1c1ccc(F)cc1 [ezetimibe] | – | 27% |
